The target in assay [1] is T1, B1 bradykinin receptor (Rattus norvegicus, UniProt P97583).
T1 sequence (P97583 whole entry): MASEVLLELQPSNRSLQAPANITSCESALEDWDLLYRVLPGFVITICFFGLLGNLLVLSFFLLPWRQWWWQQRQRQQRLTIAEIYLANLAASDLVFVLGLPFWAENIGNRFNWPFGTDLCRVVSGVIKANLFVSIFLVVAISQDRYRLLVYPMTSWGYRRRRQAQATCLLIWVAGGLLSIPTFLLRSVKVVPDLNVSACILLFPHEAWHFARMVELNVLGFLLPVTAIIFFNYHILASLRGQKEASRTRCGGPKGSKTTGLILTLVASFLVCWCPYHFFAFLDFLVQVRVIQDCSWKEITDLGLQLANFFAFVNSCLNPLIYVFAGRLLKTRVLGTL
The assay is described as follows: Compound was evaluated for agonist activity against B1 receptor in rat ileum longitudinal smooth muscle. The assay is classed as functional, tissue-based.

For assay [2], the target named is T2, B2 bradykinin receptor (Cavia porcellus, UniProt O70526).
T2 sequence (O70526 whole entry): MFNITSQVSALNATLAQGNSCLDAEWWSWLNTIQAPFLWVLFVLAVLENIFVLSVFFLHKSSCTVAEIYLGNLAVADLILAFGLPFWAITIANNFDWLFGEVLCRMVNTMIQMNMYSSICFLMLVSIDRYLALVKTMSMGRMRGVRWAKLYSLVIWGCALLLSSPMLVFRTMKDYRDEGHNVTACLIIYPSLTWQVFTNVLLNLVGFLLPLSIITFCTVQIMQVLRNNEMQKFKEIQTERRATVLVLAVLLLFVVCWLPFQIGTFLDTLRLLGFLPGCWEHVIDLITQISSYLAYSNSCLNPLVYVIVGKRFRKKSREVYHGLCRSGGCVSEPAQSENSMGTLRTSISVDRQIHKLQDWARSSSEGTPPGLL
The assay is described as follows: Functional antagonism against BK-induced contractions in the classical guinea pig ileum B2 binding assay. The assay is classed as tissue-based. The note with it: read-out: pA2 (converted).

The target in assay [3] is T2, B2 bradykinin receptor. Briefly: Compound was evaluated for inhibitory activity against [3H]BK in the classical guinea pig ileum B2 binding assay. It is filed as tissue-based.
Assay [4] deals with T3, B2 bradykinin receptor (Homo sapiens, UniProt P30411).
T3 sequence (P30411 whole entry): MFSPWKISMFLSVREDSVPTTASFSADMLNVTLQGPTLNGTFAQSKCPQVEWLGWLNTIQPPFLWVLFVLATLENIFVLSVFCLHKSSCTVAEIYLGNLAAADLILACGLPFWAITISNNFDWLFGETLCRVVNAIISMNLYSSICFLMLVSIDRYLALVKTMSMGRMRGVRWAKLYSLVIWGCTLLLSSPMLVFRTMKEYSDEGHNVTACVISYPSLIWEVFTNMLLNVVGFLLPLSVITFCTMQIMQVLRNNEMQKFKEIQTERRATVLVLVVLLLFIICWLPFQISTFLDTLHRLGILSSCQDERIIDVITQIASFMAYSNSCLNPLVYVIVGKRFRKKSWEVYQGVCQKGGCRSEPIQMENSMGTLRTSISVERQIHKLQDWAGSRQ
The assay is described as follows: Compound was evaluated for inhibitory activity against [3H]BK in membrane preparations from a stable cell line that expresses the human B2 receptor.

The structures appear in SMILES notation. Numbered stars: 1 amine (or outer) side, 2 acyl side, 3 side chain; on linkers, the order of the positions; unused ones are H or OH. Square brackets hold non-standard residues; d marks the D form. Peptide text beside a SMILES is read from it. ξ: configuration not given here. Oic(3aξ,7aξ) = O=C(O)[C@@H]1CC2CCCCC2N1; X2 = O=C([C@H]1c2ccccc2CCN1[*:1])[*:2]; X1 = O=C(CCCCCCCCCCCCN[*:1])[*:2]

As to `NCCCC[C@H](N)C(=O)N[C@@H](CCCN=C(N)N)C(=O)N1CCC[C@H]1C(=O)N1CCC[C@H]1C(=O)NCC(=O)N[C@@H](Cc1ccccc1)C(=O)N[C@@H](CO)C(=O)N1CCC[C@H]1C(=O)N[C@@H](Cc1ccccc1)C(=O)O`, in assay [1], the EC50 (in general, the concentration that produces a half-maximal response) was determined as 85 nM.

Consider `N=C(N)NCCC[C@H](NC(=O)[C@H](N)CCCN=C(N)N)C(=O)NCCCCCCCCCCCC(=O)N[C@@H](CO)C(=O)N1CCc2ccccc2[C@@H]1C(=O)N1C2CCCCC2C[C@H]1C(=O)N[C@@H](CCCN=C(N)N)C(=O)O` (stereo not given in full), for which, in assay [2], the Kb was 3.16 µM. For the same compound, the Ki (usually the dissociation constant of the complex between target and ligand, obtained from inhibition or displacement) in assay [3] is 360 nM.

The compound `NCCCC[C@H](N)C(=O)N[C@@H](CCCN=C(N)N)C(=O)NCCCCCCCCCCCCC(=O)N[C@@H](CO)C(=O)N1CCC[C@H]1C(=O)N[C@@H](Cc1ccccc1)C(=O)O` (H-KR[X1]SPF-OH) gave an EC50 in assay [1] of 980 nM.

Regarding `NC(N)=NCCC[C@H](NC(=O)[C@@H]1CC2CCCCC2N1C(=O)[C@H]1c2ccccc2CCN1C(=O)[C@H](CO)NC(=O)CCCCCCCCCCCCNC(=O)[C@H](CCCN=C(N)N)NC(=O)[C@@H](N)CCCN=C(N)N)C(=O)O` (stereo not given in full) (H-RR[X1]S[X2][Oic(3aξ,7aξ)]R-OH), in assay [4], the affinity corresponds to a Ki of 44 nM.
